Target: T1, Xyl (GH43 β-1,4-xylosidase from Geobacillus thermoleovorans IT-08) (Geobacillus thermoleovorans, UniProt Q2I2N4)
T1 construct: complete Xyl (511 residues; 61,533 Da); E. coli BL21 (DE3), plasmid pET-xyl; one molecule per asymmetric unit, probably dimer in solution (PISA)
T1 sequence (Q2I2N4 1-511): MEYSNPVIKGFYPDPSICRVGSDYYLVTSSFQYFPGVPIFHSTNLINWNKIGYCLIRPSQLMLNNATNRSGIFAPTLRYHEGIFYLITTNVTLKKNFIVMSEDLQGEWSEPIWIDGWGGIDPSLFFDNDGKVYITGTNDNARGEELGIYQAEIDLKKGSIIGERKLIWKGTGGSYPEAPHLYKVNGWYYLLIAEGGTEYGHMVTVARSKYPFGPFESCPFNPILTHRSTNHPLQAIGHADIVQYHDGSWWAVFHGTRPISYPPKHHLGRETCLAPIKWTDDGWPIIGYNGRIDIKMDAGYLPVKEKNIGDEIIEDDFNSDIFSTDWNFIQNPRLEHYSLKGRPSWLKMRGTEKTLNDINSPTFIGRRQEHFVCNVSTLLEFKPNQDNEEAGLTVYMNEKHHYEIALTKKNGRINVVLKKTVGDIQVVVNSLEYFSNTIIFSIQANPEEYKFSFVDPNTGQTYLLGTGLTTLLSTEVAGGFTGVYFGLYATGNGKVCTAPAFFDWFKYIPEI
Assay: X-ray crystal structure of soaked crystal
Type: binding
Conditions: 500 mM L-arabinose soak, 10 min, pH 7.0, 283 K; 2.10 Å; active site subsite -1; same site in ternary complex with D-xylose (5Z5I, 1.70 Å)

Compound: OC[C@@H]1O[C@H](O)[C@H](O)[C@H]1O [L-arabinose]
- X-ray crystal structure of soaked crystal: arabinose was only found in subsite -1
